Experimental data reported in patent publication US10874635B2, “Tocotrienol compositions” (First Tech International Limited, priority 2011, dated 2020).

Test: Viscosity measurement of vitamin E, MCT and binary blends
Assay type: physicochemical
Conditions: 23 °C
Description: Viscosity of vitamin E, MCT, and their binary mixtures was measured using an advanced rheometer from TA Instruments Ltd, New Castle, Del. model number AR 2000. A cone and plate geometry was used with a steel plate radius of 40 mm and a cone angle of 2°. The gap between the cone and plate geometry was set at 100 μm. Rheological measurements were made at 23° C. The rheometer was fitted with a Peltier temperature control system, which was monitored during the experiments. For each test, approximately 1 g of vitamin E, MCT, or their binary mixtures was placed between the plates. Preliminary studies were conducted to optimize instrument parameters. Once the system was optimized, a continuous ramp method was used. The shear stress was measured at varying shear rates from 1 to 100 s−1 for a period of 5 minutes. All rheological measurements were carried out in triplicates. Data were analyzed using rheology software namely TA Rheology Advantage software, Version 2.3.
The viscosity of the blends decreased from a high of 3700 mPa·s for vitamin E alone to a low of 27 mPa·s, which is the viscosity of pure MCT. […] Therefore, two levels of vitamin E loading in the emulsion were evaluated in this study representing a high viscosity system at a 70/30 ratio and a low viscosity system at a 30/70 ratio of vitamin E to MCT. […]

viscosity: 3700 mPa·s
Substance: (±)-α-Tocopherol [vitamin E]
